The target in one assay is T1, ADAR (Homo sapiens, UniProt P55265).
T1 sequence (P55265 1-1226): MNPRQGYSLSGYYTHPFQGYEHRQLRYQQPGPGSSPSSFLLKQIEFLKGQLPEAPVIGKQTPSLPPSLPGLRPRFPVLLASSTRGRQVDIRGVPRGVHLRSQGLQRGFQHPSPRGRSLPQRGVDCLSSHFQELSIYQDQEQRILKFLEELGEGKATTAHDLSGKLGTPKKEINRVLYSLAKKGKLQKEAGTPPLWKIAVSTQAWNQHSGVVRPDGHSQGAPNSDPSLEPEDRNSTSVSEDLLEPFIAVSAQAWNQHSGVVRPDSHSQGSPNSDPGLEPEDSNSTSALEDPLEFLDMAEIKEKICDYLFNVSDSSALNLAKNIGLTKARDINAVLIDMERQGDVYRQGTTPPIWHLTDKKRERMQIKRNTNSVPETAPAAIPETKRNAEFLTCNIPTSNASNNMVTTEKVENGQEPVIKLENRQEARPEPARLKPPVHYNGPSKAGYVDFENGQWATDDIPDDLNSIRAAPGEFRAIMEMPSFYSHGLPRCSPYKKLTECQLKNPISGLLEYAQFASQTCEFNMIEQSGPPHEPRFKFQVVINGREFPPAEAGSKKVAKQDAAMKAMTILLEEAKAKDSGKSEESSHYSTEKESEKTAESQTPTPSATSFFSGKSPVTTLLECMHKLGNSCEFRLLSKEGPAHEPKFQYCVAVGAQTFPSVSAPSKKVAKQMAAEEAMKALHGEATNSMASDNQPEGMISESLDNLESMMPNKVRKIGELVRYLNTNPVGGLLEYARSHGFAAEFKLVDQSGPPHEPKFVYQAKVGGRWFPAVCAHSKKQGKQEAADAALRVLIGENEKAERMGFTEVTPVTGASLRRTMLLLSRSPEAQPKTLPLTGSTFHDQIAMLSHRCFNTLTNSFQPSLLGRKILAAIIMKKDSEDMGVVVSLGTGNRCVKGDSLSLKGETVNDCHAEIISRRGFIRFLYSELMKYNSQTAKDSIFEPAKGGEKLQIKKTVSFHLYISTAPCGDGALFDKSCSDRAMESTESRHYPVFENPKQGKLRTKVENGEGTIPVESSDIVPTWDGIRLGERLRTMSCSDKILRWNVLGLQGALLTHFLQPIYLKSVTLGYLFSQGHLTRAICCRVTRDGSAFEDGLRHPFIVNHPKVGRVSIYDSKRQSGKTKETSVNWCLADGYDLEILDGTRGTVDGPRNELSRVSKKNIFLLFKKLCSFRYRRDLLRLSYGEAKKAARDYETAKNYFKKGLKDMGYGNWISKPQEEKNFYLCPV
To be noted: cited from earlier work.

The test system of a further assay is HeLa-Nluc-edit cells. The experiment in a line: Firefly luciferase (FFL) activity in HeLa-Nluc-edit reporter cells (viability/apoptosis). The class given is cell-based, human. To be noted: FIG. 24C. Here is the method: A HeLa cell line (telomerase positive) permanently transformed with a dual luciferase reporter system (HeLa-Nluc-edit) as described by Fritzell, K. et al (Sensitive ADAR editing reporter in cancer cells enables high-throughput screening of small molecule libraries. Nucleic acids research 47, e22, doi:10.1093/nar/gky1228 (2019), which is incorporated herein by reference) were seeded at a density of 800 cells per well into 384 white plates (PerkinElmer, CulturPlate384, #6007689) in 20 μl of Opti-MEM without phenol red (Thermo Fisher Scientific #11058021) using a multidrop dispenser (Thermo Fisher Scientific) and incubated overnight at 37-C, 5% CO2. The cells were then treated with test compounds (Maybridge HitFinder Diversity Set library) for 72 h prior to luminescence signal detection. Briefly, 10 μl of Steadylite Plus FFL assay system reagents were added and firefly luminescence signal was measured within 10-20 min after the addition using a multiplate reader at 1 s integration time. Firefly luciferase activity was calculated for each well and results for each plate were normalized to a negative (0.1% DMSO) and positive (Doxorubicin 10 microM) control. […]
For the second screen, 10 μl of Steadylite Plus FFL assay system reagents were added and firefly luminescence signal was measured within 10-20 min after the addition using a multiplate reader at 1 s integration time. […]

Turning to `Nc1ncnc2c1nnn2[C@@H]1O[C@H](CO)[C@@H](O)[C@H]1O` [8-azaadenosine], the ADAR inhibition entry on ADAR was “not ADAR inhibitors”. Consider `Nc1ncnc2c1nc(Cl)n2[C@@H]1O[C@H](CO)[C@@H](O)[C@H]1O` [8-chloroadenosine], for which the ADAR inhibition entry at ADAR is “not ADAR inhibitors”. `COc1cccc2c1C(=O)c1c(O)c3c(c(O)c1C2=O)C[C@@](O)(C(=O)CO)C[C@@H]3O[C@H]1C[C@H](N)[C@H](O)[C@H](C)O1` [Doxorubicin]: the “apoptosis detected by reduction of the FFL activity” value in the assay on HeLa-Nluc-edit cells is listed as “induces acute apoptosis”.

The values are drawn from US20250066864A1, “METHODS FOR IDENTIFYING ADAR1 INHIBITORS, AND COMPOSITIONS AND METHODS OF USE IN TREATING CANCER” (The Wistar Institute of Anatomy and Biology, priority 2021, published 2025).
